Results published in ChEMBL document CHEMBL1201862, “PubChem BioAssay data set” (2004).
The source made the active and inactive calls. The rule behind the calls is not given here.

Molecular target: T1, Exodeoxyribonuclease V (Escherichia coli (strain K12), UniProt P04993+P07648+P08394)
T1 sequence (P04993 whole entry): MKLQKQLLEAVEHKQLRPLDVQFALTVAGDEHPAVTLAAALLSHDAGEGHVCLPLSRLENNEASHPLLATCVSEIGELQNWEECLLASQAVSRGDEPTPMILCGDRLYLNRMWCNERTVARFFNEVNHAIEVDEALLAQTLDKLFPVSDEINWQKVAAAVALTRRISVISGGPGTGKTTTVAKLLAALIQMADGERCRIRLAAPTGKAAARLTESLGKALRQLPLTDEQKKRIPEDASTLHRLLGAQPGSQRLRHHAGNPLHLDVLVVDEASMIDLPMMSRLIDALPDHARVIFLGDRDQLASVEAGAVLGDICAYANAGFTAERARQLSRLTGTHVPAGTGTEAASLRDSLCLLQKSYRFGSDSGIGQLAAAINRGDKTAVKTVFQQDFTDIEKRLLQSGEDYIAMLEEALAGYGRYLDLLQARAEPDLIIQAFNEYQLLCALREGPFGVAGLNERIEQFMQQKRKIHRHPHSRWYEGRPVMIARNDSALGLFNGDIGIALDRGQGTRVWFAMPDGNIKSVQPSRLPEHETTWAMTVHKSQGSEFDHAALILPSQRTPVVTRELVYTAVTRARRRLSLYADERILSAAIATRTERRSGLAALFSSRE
T1 sequence (P07648 whole entry): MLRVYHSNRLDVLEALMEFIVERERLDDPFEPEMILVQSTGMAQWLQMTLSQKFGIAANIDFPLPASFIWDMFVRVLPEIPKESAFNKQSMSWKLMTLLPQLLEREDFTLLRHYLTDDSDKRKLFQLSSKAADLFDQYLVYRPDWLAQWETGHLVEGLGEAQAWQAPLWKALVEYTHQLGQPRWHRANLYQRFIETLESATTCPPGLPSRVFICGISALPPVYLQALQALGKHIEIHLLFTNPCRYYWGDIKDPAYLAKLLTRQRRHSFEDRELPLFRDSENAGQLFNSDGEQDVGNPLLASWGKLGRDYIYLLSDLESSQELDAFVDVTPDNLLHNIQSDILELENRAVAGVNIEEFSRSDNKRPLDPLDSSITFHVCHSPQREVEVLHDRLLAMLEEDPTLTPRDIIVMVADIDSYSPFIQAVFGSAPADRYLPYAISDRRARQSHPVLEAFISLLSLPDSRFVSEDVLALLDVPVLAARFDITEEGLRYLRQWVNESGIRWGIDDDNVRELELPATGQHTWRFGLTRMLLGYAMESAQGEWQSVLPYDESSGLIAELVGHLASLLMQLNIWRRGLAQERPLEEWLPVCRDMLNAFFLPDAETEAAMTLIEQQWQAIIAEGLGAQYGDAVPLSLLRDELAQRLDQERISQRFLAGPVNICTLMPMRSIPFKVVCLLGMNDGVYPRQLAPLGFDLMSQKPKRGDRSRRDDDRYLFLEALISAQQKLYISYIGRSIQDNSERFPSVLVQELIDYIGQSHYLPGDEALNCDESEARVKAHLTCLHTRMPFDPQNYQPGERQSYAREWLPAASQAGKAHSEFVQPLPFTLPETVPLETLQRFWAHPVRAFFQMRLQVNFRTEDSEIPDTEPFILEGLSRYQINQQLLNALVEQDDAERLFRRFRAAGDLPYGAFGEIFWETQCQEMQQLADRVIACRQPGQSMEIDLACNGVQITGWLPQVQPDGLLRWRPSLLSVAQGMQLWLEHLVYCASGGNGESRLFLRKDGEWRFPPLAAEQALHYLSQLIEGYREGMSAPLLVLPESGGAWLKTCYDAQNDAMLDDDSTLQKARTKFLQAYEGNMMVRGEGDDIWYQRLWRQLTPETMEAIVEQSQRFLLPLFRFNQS
T1 sequence (P08394 whole entry): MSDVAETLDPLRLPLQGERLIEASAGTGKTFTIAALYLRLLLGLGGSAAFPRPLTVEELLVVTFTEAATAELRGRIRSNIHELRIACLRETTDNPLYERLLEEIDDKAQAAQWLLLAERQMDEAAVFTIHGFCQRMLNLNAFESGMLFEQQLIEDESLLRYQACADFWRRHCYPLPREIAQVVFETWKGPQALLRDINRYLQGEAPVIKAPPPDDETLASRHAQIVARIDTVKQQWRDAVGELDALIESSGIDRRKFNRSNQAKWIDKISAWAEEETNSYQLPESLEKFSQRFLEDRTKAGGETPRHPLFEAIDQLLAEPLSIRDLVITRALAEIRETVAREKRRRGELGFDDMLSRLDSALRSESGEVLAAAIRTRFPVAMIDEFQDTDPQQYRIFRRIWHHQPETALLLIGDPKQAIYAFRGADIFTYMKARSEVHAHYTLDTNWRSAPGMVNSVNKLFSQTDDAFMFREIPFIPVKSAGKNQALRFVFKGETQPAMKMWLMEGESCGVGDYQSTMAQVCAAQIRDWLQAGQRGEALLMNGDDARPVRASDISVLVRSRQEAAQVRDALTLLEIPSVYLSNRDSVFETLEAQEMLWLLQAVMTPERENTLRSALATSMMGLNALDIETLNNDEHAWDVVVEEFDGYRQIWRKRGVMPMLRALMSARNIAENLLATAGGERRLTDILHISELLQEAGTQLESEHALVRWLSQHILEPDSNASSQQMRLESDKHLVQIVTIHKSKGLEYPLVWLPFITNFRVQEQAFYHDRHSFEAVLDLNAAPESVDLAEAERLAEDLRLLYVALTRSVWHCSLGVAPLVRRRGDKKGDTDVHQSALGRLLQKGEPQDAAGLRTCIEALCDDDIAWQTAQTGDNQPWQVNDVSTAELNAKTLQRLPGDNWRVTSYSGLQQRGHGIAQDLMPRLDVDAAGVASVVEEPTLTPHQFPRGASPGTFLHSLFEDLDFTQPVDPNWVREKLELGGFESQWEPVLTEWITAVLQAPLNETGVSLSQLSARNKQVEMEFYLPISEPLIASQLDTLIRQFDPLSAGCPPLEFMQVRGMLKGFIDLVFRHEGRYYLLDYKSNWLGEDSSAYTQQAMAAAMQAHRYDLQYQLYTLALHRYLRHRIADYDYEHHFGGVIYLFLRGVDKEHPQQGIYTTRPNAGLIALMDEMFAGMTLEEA
Experiment: E. coli RecBCD inhibitors, dose response, counter-screen for AddAB inhibitor project, absorbance, V66 E. coli, mutant T4 phage (AID 492957)
Format: functional, cell-based, Escherichia coli str. K-12 substr. MG1655

O=C(Cc1ccc([N+](=O)[O-])cc1)N/N=C/c1ccc([N+](=O)[O-])o1
IC50: > 39.5 µM (inactive)

COc1ccc(C(NC(=O)C(C)C)c2ccc3cccnc3c2O)cc1 (configuration not stated)
IC50: > 119 µM (inactive)
